Reference: patent US20230039858A1, “COMPOSITIONS AND METHODS RELATED TO MOLECULAR CONJUGATION” (IntoCell, Inc., priority 2019, published 2023)

Experiments:
[1] = Plasma stability in human plasma, HPLC; format: in vitro ADME; details: 300 μM, 37° C., up to 7 days
Experimental: (§1) Compound N-Ac-Cys-AMA-10 and methyl phenyl sulfone (used as a standard material) were dissolved in DMSO to make a concentration of 30 mM. Then, each of human plasma (Biochemed 752PR—SC-PMG) and mouse plasma (Biochemed 029-APSC-MP) were mixed with the N-Ac-Cys-AMA-10 and MPS to make a final concentration of N-Ac-Cys-AMA-10 and methyl phenyl sulfone 300 μM. The resulting plasma mixtures were incubated in a water bath at 37° C. Aliquots were taken before the reaction and on 1 day, 2 days, 4 days, and 7 days after the reaction, wherein each aliquot was 200 μL. To complete the reaction, a two-fold volume of acetonitrile was added, followed by brief vortexing, and centrifugation for plasma protein precipitation. Each supernatant obtained after centrifugation was collected and analyzed by HPLC.

[2] = Plasma stability in mouse plasma, HPLC; format: in vitro ADME; details: 300 μM, 37° C., up to 7 days
Experimental: as §1

[3] = Relative reaction rate with N-Ac-cysteine (LC/MS); format: physicochemical; details: with N-acetyl-L-cysteine in PBS buffer/DMSO, 1 hour, room temperature; relative to Reference A = 1
Experimental: To a homogeneous solutions of ‘reference A’, PyrMPS-1, and mMPS-4 (10 stock solution 10 mmol) in PBS buffer (870 μL) and DMSO (90 μL) was added N-acetyl-L-cysteine (10 stock solution 10 mmol) and stirred for 1 hour at room temperature. The resulting samples were checked for reaction rate using LC/MS.

Structure (SMILES) | stability in human plasma [1] | stability in mouse plasma [2] | Relative reaction rate [3]
C#CCOCCOCCOCCNC(=O)c1cc(C(=O)CC(SC[C@H](NC(C)=O)C(=O)O)C(N)=O)cc(C(=O)NCCOCCOCCOCC#C)c1 (some centres unmarked) [N-Ac-Cys-AMA-10] | high stability | high stability | 
Cc1ccc(S(=O)(=O)CCC(=O)c2ccc(C(=O)NCCOCCOCCOCCOCCOCCN=[N+]=[N-])cc2)cc1 [Reference A, reference compound] |  |  | 1 folds
COC(=O)c1cc(C(=O)CCS(=O)(=O)c2ccc(C)cc2)cc(C(=O)NCCOCCOCCOCCOCCOCCN=[N+]=[N-])c1 [mMPS-4] |  |  | Increase 7 folds
Cc1ccc(S(=O)(=O)CCC(=O)c2cncc(C(=O)NCCOCCOCCOCCOCCOCCN=[N+]=[N-])c2)cc1 [pyrMSP-1] |  |  | Increase 11.5 folds
